# Patent publication US7790721B2, “Pyrroloquinoxalinone inhibitors of poly(ADP-ribose)polymerase” (Abbott Laboratories, priority 2006, dated 2010)
# Like-named read-outs stand apart in the source and are kept apart here.
# Molecular target: T1, PARP-1 (Homo sapiens, UniProt P09874)
# T1 construct: purchased Trevigen (Gaithersburg, Md.); host or cells: E. coli
# Test: PARP1 assay (inhibition of PARP, [3H]-NAD+ / biotinylated histone H1, FlashPlate scintillation)
# Assay type: biochemical
# [1] = recombinant human PARP, 1 nM enzyme, 1.5 μM [3H]-NAD+, inhibition curves at various substrate concentrations, read-out: PARP-1 (Ki)
# Description: Nicotinamide[2,5′,8-3H]adenine dinucleotide and strepavidin SPA beads were purchased from Amersham Biosiences (Buckinghamshire, U.K.). […] NAD^+, histone, aminobenzamide, 3-amino benzamide and Calf Thymus DNA (dcDNA) were purchased from Sigma (St. Louis, Mo.). […] Biotinylated histone H1 was prepared by treating the protein with Sulfo-NHS-LC-Biotin from Pierce (Rockford, Ill.). The biotinylation reaction was conducted by slowly and intermittently adding 3 equivalents of 10 mM Sulfo-NHS-LC-Biotin to 100 μM Histone H1 in phosphate-buffered saline, pH 7.5, at 4° C. with gentle vortexing over 1 minute followed by subsequent 4° C. incubation for 1 hour. Streptavidin coated (FLASHPLATE PLUS®) microplates were purchased from Perkin Elmer (Waltham, Mass.).
# PARP1 assay was conducted in PARP assay buffer containing 50 mM Tris pH 8.0, 1 mM DTT, 4 mM MgCl2. […] Auto reactions utilizing SPA bead-based detection were carried out in 100 μL volumes in white 96 well plates. Reactions were initiated by adding 50 μl of 2× NAD^+ substrate mixture to 50 μL of 2× enzyme mixture containing PARP and DNA. […] 170 μL of the stopped reaction mixtures were transferred to streptavidin FLASHPLATE PLUS®, incubated for 1 hour, and counted using a TOPCOUNT® microplate scintillation counter from Perkin Elmer (Waltham, Mass.).
# T1 sequence (P09874 whole entry): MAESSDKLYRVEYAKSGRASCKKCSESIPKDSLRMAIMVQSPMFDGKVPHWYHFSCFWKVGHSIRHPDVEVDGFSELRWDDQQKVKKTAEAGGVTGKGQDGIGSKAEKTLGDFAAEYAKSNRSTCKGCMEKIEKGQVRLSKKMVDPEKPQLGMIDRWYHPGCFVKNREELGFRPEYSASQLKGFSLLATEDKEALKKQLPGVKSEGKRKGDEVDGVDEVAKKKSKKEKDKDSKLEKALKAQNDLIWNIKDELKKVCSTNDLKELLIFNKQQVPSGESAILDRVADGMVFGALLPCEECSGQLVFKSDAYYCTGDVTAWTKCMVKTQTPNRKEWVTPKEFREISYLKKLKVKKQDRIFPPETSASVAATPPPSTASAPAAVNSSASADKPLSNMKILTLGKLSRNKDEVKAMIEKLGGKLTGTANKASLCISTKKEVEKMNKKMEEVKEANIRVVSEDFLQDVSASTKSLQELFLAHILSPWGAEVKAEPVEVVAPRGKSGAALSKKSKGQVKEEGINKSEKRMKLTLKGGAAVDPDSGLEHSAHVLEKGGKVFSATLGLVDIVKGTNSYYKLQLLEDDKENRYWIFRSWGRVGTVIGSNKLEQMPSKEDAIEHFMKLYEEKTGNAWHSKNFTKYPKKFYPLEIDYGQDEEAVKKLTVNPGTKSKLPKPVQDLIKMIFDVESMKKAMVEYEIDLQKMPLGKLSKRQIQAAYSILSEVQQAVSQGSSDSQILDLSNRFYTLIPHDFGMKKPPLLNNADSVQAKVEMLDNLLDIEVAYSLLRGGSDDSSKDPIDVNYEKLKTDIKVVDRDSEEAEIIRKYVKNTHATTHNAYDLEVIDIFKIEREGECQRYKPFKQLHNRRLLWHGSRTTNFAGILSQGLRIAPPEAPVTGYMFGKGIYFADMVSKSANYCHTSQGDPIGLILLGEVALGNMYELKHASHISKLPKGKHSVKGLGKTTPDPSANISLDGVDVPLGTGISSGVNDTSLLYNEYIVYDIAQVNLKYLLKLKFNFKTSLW
Ki [1],Ki,Compound
474 nM,,"O=c1[nH]c2cc(CNC3CCCCC3)ccc2n2cccc12 [Example 1, 7-((cyclohexylamino)methyl)pyrrolo[1,2-a]quinoxalin-4(5H)-one]"
91 nM,,"O=c1[nH]c2cc(CNCC3CCCCC3)ccc2n2cccc12 [Example 2, 7-(((cyclohexylmethyl)amino)methyl)pyrrolo[1,2-a]quinoxalin-4(5H)-one]"
83 nM,,"O=c1[nH]c2cc(CNC3CCC3)ccc2n2cccc12 [Example 3, 7-((cyclobutylamino)methyl)pyrrolo[1,2-a]quinoxalin-4(5H)-one]"
179 nM,,"O=c1[nH]c2cc(CNC3CCCC3)ccc2n2cccc12 [Example 4, 7-((cyclopentylamino)methyl)pyrrolo[1,2-a]quinoxalin-4(5H)-one]"
99 nM,,"O=c1[nH]c2ccc(CNC3CCCCC3)cc2n2cccc12 [Example 8, 8-((cyclohexylamino)methyl)pyrrolo[1,2-a]quinoxalin-4(5H)-one]"
206 nM,,"O=c1[nH]c2ccc(CNCC3CCCCC3)cc2n2cccc12 [Example 9, 8-(((cyclohexylmethyl)amino)methyl)pyrrolo[1,2-a]quinoxalin-4(5H)-one]"
,127 nM,"O=c1[nH]c2cc(CNCc3ccccc3)ccc2n2cccc12 [Example 11, 7-((benzylamino)methyl)pyrrolo[1,2-a]quinoxalin-4(5H)-one]"
98 nM,,"O=c1[nH]c2ccc(CNCCc3ccccc3)cc2n2cccc12 [Example 14, 8-(((2-phenylethyl)amino)methyl)pyrrolo[1,2-a]quinoxalin-4(5H)-one]"
51 nM,,"O=c1[nH]c2ccc(CNC3CCC3)cc2n2cccc12 [Example 16, 8-((cyclobutylamino)methyl)pyrrolo[1,2-a]quinoxalin-4(5H)-one]"
130 nM,,"O=c1[nH]c2ccc(CN3CCOCC3)cc2n2cccc12 [Example 17, 8-(morpholin-4-ylmethyl)pyrrolo[1,2-a]quinoxalin-4(5H)-one]"
79 nM,,"O=c1[nH]c2ccc(CNC3CCCC3)cc2n2cccc12 [Example 18, 8-((cyclopentylamino)methyl)pyrrolo[1,2-a]quinoxalin-4(5H)-one]"
47 nM,,"O=c1[nH]c2ccc(CN3CCCCC3)cc2n2cccc12 [Example 19, 8-(piperidin-1-ylmethyl)pyrrolo[1,2-a]quinoxalin-4(5H)-one]"
131 nM,,"O=c1[nH]c2ccc(CNCc3ccccc3)cc2n2cccc12 [Example 20, 8-((benzylamino)methyl)pyrrolo[1,2-a]quinoxalin-4(5H)-one]"
280 nM,,"O=c1[nH]c2cc(CN3CCCC3)ccc2n2ccnc12 [Example 21, 7-(pyrrolidin-1-ylmethyl)imidazo[1,2-a]quinoxalin-4(5H)-one]"
330 nM,,"O=c1[nH]c2cc(CN3CCCCC3)ccc2n2ccnc12 [Example 22, 7-(piperidin-1-ylmethyl)imidazo[1,2-a]quinoxalin-4(5H)-one]"
519 nM,,"CN(C)Cc1ccc2c(c1)[nH]c(=O)c1nccn12 [Example 23, 7-((dimethylamino)methyl)imidazo[1,2-a]quinoxalin-4(5H)-one]"
5180 nM,,"O=c1[nH]c2cc(CNCC3CCCCC3)ccc2n2ccnc12 [Example 24, 7-(((cyclohexylmethyl)amino)methyl)imidazo[1,2-a]quinoxalin-4(5H)-one]"

Ki [1],Ki,Compound
2850 nM,,"O=c1[nH]c2cc(CN3CCOCC3)ccc2n2ccnc12 [Example 25, 7-(morpholin4-ylmethyl)imidazo[1,2-a]quinoxalin-4(5H)-one]"
1120 nM,,"O=C1NCc2cc(CN3CCCC3)ccc2-n2cccc21 [Example 27, 8-(pyrrolidin-1-ylmethyl)-5,6-dihydro-4H-pyrrolo[1,2-a][1,4]benzodiazepin-4-one]"
1470 nM,,"CC(C)NCc1ccc2c(c1)CNC(=O)c1cccn1-2 [Example 28, 8-((isopropylamino)methyl)-5,6-dihydro-4H-pyrrolo[1,2-a][1,4]benzodiazepin-4-one]"
1500 nM,,"CN1CCN(Cc2ccc3c(c2)CNC(=O)c2cccn2-3)CC1 [Example 29, 8-((4-methylpiperazin-1-yl)methyl)-5,6-dihydro-4H-pyrrolo[1,2-a][1,4]benzodiazepin-4-one]"
1490 nM,,"O=C1NCc2cc(CNCC3CCCCC3)ccc2-n2cccc21 [Example 31, 8-(((cyclohexylmethyl)amino)methyl)-5,6-dihydro-4H-pyrrolo[1,2-a][1,4]benzodiazepin-4-one]"
809 nM,,"O=C1NCc2cc(CNCc3ccccc3)ccc2-n2cccc21 [Example 32, 8-((benzylamino)methyl)-5,6-dihydro-4H-pyrrolo[1,2-a][1,4]benzodiazepin-4-one]"
554 nM,,"O=C1NCc2cc(CNC3CCCC3)ccc2-n2cccc21 [Example 33, 8-((cyclopentylamino)methyl)-5,6-dihydro-4H-pyrrolo[1,2-a][1,4]benzodiazepin-4-one]"
3490 nM,,"O=C1Nc2cc(CNC3CCCCC3)ccc2N2CCCCC12 (centres unmarked) [Example 36, 3-[(cyclohexylamino)methyl]-7,8,9,10-tetrahydro-5H-pyrido[1,2-a]quinoxalin-6(6aH)-one]"
98 nM,,"O=C1Nc2cc(CN3CCCCC3)ccc2N2CCCCC12 (centres unmarked) [Example 37, 3-(piperidin-1-ylmethyl)-7,8,9,10-tetrahydro-5H-pyrido[1,2-a]quinoxalin-6(6aH)-one]"
340 nM,,"CC(C)NCc1ccc2c(c1)NC(=O)C1CCCCN21 (centres unmarked) [Example 38, 3-[(isopropylamino)methyl]-7,8,9,10-tetrahydro-5H-pyrido[1,2-a]quinoxalin-6(6aH)-one]"
71 nM,,"CCN(C)Cc1ccc2c(c1)NC(=O)C1CCCCN21 (centres unmarked) [Example 39, 3-{[ethyl(methyl)amino]methyl}-7,8,9,10-tetrahydro-5H-pyrido[1,2-a]quinoxalin-6(6aH)-one]"
1500 nM,,"CN(Cc1ccc2c(c1)NC(=O)C1CCCCN21)C1CCCCC1 (centres unmarked) [Example 40, 3-{[cyclohexyl(methyl)amino]methyl}-7,8,9,10-tetrahydro-5H-pyrido[1,2-a]quinoxalin-6(6aH)-one]"
284 nM,,"CC(C)N(C)Cc1ccc2c(c1)NC(=O)C1CCCCN21 (centres unmarked) [Example 41, 3-{[isopropyl(methyl)amino]methyl}-7,8,9,10-tetrahydro-5H-pyrido[1,2-a]quinoxalin-6(6aH)-one]"
7790 nM,,"CN1CCN(Cc2ccc3c(c2)NC(=O)C2CCCCN32)CC1 (centres unmarked) [Example 42, 3-[(4-methylpiperazin-1-yl)methyl]-7,8,9,10-tetrahydro-5H-pyrido[1,2-a]quinoxalin-6(6aH)-one]"
146 nM,,"O=C1Nc2cc(CN3CCCCC3)ccc2N2CCCC12 (centres unmarked) [Example 45, 7-(piperidin-1-ylmethyl)-1,2,3,3a-tetrahydropyrrolo[1,2-a]quinoxalin-4(5H)-one]"
130 nM,,"CCN(C)Cc1ccc2c(c1)NC(=O)C1CCCN21 (centres unmarked) [Example 46, 7-{[ethyl(methyl)amino]methyl}-1,2,3,3a-tetrahydropyrrolo[1,2-a]quinoxalin-4(5H)-one]"
2160 nM,,"CN(Cc1ccc2c(c1)NC(=O)C1CCCN21)C1CCCCC1 (centres unmarked) [Example 47, 7-{[cyclohexyl(methyl)amino]methyl}-1,2,3,3a-tetrahydropyrrolo[1,2-a]quinoxalin-4(5H)-one]"

Compound,Ki [1],Ki
"8-(((2-ethoxyethyl)(methyl)amino)methyl)-5,6-dihydro-4H-pyrrolo[1,2-a][1,4]benzodiazepin-4-one [Example 30]",2650 nM,
